Test results from patent publication US9206195B2, “Dihydrothienopyrimidines” (Boehringer Ingelheim International GmbH, priority 2011, dated 2015).

Test system: Aβ42 production (γ-secretase) in H4 neuroglioma cells stably expressing the human APP695 isoform
Assay: Screening for preferential inhibition of Aβ42 vs. total Aβ production in H4 neuroglioma cells (Meso Scale Discovery electrochemiluminescence assays on supernatant)
Assay type: cell-based
Settings: for IC50: 22 hours incubation, Aβ42 in supernatant, read-out: Aβ42 cellular IC50; for Ratio Aβ(total)/Aβ42 (Aβ total IC50/Aβ42 IC50): higher ratio = more specific inhibition of Aβ42 over Aβ total
Protocol: Cells were plated out to near confluency. The compounds to be tested were received as 10 mM stocks in 100% DMSO. A dilution series was initially generated in 100% DMSO and then diluted 200-fold in cell culture media such that the tested concentration range was 30 μM to 0.1 nM and the final DMSO concentration was 0.5%. The diluted compounds were incubated with the cells for 22 hours in an incubator at 37° C. and 5% CO2. Aβ42 as well as Aβ total levels were then measured post-incubation from the supernatant of the cells. Aβ42 levels were determined using a specific electrochemiluminescence assay provided by Meso Scale Discovery (Catalog #L21CA-1) according to the manufacturer's protocol. Aβ total levels were likewise determined using a specific electrochemiluminescence assay provided by Meso Scale Discovery (Catalog #L21ZA-1) according to the manufacturer's protocol.
In order to absolutely define the described compounds as modulators of γ-Secretase as opposed to simply inhibitors of γ-Secretase, measurements of not only Aβ42 but also Aβ total are performed.

| IC50 [µM] | Ratio Aβ(total)/Aβ42 (Aβ total IC50/Aβ42 IC50) | Structure (SMILES) |
| --- | --- | --- |
| 0.19 | 37 | COc1cc(Nc2nc3c(c(NC4CCCC4)n2)SC2(CCC2)C3)ccc1-n1cnc(C)c1 [Example 1] |
| 0.52 | 51 | Cc1ncc(-c2ccc(Nc3nc4c(c(N(C)C)n3)SC3(CCC3)C4)cn2)o1 [Example 2] |
| 0.09 | 85 | COc1cc(Nc2nc3c(c(N4CCCCC4)n2)SC2(CCC2)C3)ccc1-n1cnc(C)c1 [Example 3] |
| 0.13 | 50 | COc1cc(Nc2nc3c(c(N(C)C)n2)SC2(CCC2)C3)ccc1-n1cnc(C)c1 [Example 4] |
| 0.22 | 54 | COc1cc(Nc2nc3c(c(NC4CCCC4)n2)[S+]([O-])C2(CCC2)C3)ccc1-n1cnc(C)c1 (centres unmarked) [Example 5] |
| 0.14 | 55 | COc1cc(Nc2nc3c(c(N4CCOCC4)n2)SC2(CCC2)C3)ccc1-n1cnc(C)c1 [Example 6] |
| 0.1 | 242 | COc1cc(Nc2nc3c(c(N(C)C)n2)SC2(CCC2)C3)ccc1-c1cnc(C)o1 [Example 7] |
| 3.25 | >9 | COc1cc(Nc2nc3c(c(N4CCOCC4)n2)[S+]([O-])C2(CCC2)C3)ccc1-n1cnc(C)c1 (centres unmarked) [Example 8] |
| 0.13 | 110 | COc1cc(Nc2nc(C)c3c(n2)CC2(CCC2)S3)ccc1-n1cnc(C)c1 [Example 10] |
| 1.55 | 19 | COc1cc(Nc2nc(C)c3c(n2)CC2(CCC2)[S+]3[O-])ccc1-n1cnc(C)c1 (centres unmarked) [Example 11] |
| 0.12 | 61 | COc1cc(Nc2nc3c(c(N(C)C)n2)SC2(CCCCC2)C3)ccc1-n1cnc(C)c1 [Example 12] |
| 0.13 | 57 | COc1cc(Nc2nc3c(c(N4CCCCC4)n2)SC2(CCCCC2)C3)ccc1-n1cnc(C)c1 [Example 13] |
| 0.12 | 100 | COc1cc(Nc2nc3c(c(N4CCCCC4)n2)[S+]([O-])C2(CCCCC2)C3)ccc1-n1cnc(C)c1 (centres unmarked) [Example 14] |
| 0.3 | 61 | COc1cc(Nc2nc3c(c(N(C)C)n2)[S+]([O-])C2(CCCCC2)C3)ccc1-n1cnc(C)c1 (centres unmarked) [Example 15] |
| 0.82 | >36 | COc1cc(Nc2nc3c(c(N4CCCCC4)n2)SC2(CCOCC2)C3)ccc1-n1cnc(C)c1 [Example 16] |
| 0.53 | 51 | COc1cc(Nc2nc3c(c(N4CCCCC4)n2)[S+]([O-])C2(CCOCC2)C3)ccc1-n1cnc(C)c1 (centres unmarked) [Example 17] |
| 7.59 | 2 | COc1cc(Nc2nc3c(c(C(C)C)n2)SC2(CCCCC2)C3)ccc1-n1cnc(C)c1 [Example 18] |
| 0.37 | 55 | Cc1cn(-c2ccc(Nc3nc4c(c(N(C)C)n3)SC3(CCC3)C4)cc2C#N)cn1 [Example 19] |
| 1.38 | 8 | Cc1cc(-c2ccc(Nc3nc4c(c(N(C)C)n3)SC3(CCC3)C4)cc2)ccn1 [Example 20] |
| 19.7 | 1 | COc1cc(Nc2nc3c(c(C(C)C)n2)[S+]([O-])C2(CCCCC2)C3)ccc1-n1cnc(C)c1 (centres unmarked) [Example 21] |
| 0.77 | 12 | Cc1cc(-c2ccc(Nc3nc4c(c(N(C)C)n3)[S+]([O-])C3(CCC3)C4)cc2)ccn1 (centres unmarked) [Example 22] |
| 1.19 | 25 | Cc1cn(-c2ccc(Nc3nc4c(c(N(C)C)n3)[S+]([O-])C3(CCC3)C4)cc2C#N)cn1 (centres unmarked) [Example 23] |
